In publication PMC11812085, “Structural Dynamics of the Ubiquitin Specific Protease USP30 in Complex with a Cyanopyrrolidine-Containing Covalent Inhibitor” (Journal of Proteome Research, 2025):

Target: T1, USP30 (ubiquitin specific protease 30) (Homo sapiens, UniProt Q70CQ3, DEL179-216/DEL288-305)
T1 construct: residues 64-502Δ179-216 and 288-305
T1 sequence (Q70CQ3 with tags, fused parts or gaps DEL179-216/DEL288-305): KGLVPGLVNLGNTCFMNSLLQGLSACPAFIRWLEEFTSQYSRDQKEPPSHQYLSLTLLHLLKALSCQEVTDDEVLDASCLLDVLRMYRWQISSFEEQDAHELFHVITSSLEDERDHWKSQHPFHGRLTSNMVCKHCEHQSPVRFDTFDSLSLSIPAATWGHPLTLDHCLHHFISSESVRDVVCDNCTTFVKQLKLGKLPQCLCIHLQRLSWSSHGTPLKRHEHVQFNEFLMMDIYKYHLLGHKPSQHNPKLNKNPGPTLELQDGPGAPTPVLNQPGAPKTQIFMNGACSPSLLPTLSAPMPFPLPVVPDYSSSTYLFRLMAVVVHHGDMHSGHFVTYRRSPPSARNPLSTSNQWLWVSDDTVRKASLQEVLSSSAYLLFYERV
Assay: RapidFire MS of covalent complex and HDX-MS on recombinant USP30; KI from kinact/KI kinetics with Ub-rhodamine (IC50 […] after […] min preincubation; […] in SH-SY5Y lysate ABPP)
Format: biochemical

SMILES: C[C@@H]1C[C@@H](NC(=O)c2ncc(-c3cccc(C#N)c3)o2)CN1C#N [USP30-I-1]
- KI (inactivation): ~0.35 µM
